Laboratory results taken from ChEMBL document CHEMBL1123817, “X-ray crystal structure of the opioid ligand naltrexonazine” (J Med Chem, 1987).

molecular target: Opioid receptor (Rattus norvegicus, UniProt P33533+P34975+P33535); assay: Inhibition of [3H]DAMPGO binding was determined using standard binding assay in rat brain homogenates against opioid receptor; type: tissue-based

| SMILES | IC50 |
| --- | --- |
| Oc1ccc2c3c1O[C@H]1/C(=N/N=C4\CC[C@@]5(O)[C@H]6Cc7ccc(O)c8c7[C@@]5(CCN6CC5CC5)[C@H]4O8)CC[C@@]4(O)[C@@H](C2)N(CC2CC2)CC[C@]314 (mixture of isomers) [NALTREXONAZINE] | 0.35 nM |
| Oc1ccc2c3c1O[C@H]1/C(=N/N=C4\CC[C@@]5(O)[C@H]6Cc7ccc(O)c8c7[C@@]5(CCN6CC5CC5)[C@H]4O8)CC[C@@]4(O)[C@@H](C2)N(CC2CC2)CC[C@]314 (stereo in doubt; anti) [NALTREXONAZINE] | 0.45 nM |
| Oc1ccc2c3c1O[C@H]1/C(=N/N=C4\CC[C@@]5(O)[C@H]6Cc7ccc(O)c8c7[C@@]5(CCN6CC5CC5)[C@H]4O8)CC[C@@]4(O)[C@@H](C2)N(CC2CC2)CC[C@]314 (stereo in doubt; syn) [NALTREXONAZINE] | 0.47 nM |
